# Results from patent publication US10265329B2, “Altering steroid metabolism for treatment of steroid-dependent disease” (THE CLEVELAND CLINIC FOUNDATION, priority 2015, dated 2019).
# What was measured:
# [1] = Phase II clinical trial NCT01393730: serum Abi metabolites before and after dutasteride; format: in vivo, human; conditions: for mean serum concentration, cycle 3: Abi acetate 1000 mg daily plus prednisone alone; for mean serum concentration, cycle 3 / mean serum concentration, cycle 4: 16 patients; for mean serum concentration, cycle 4: after addition of dutasteride 3.5 mg once daily
# Experimental: Twelve patients with CRPC undergoing treatment with Abi acetate at Cleveland Clinic were consented under an Institutional Review Board—approved protocol (Case 7813). Blood was collected using Vacutainer Plus serum blood collection tubes (#BD367814, Becton Dickenson, Franklin Lakes, N.J.), between 1 and 16 hours after the 1000 mg daily dose of Abi acetate was administered, and allowed to clot. Tubes were centrifuged at 2500 RPM or 1430×g for 10 minutes. Serum aliquots were frozen at −80° C. until processing. To study the effect of dutasteride on Abi metabolism, serum samples were collected from patients treated on a phase II clinical trial at Dana-Farber Cancer Institute (NCT01393730). Each patient received Abi acetate (1,000 mg daily) plus prednisone (5 mg daily) for 2 cycles (8 weeks) and then additional treatment with dutasteride ([…]) was initiated. Samples were collected on treatment with Abi alone and after addition of dutasteride (start of cycles 3, 4 and 7). Seventeen patients treated at this institution on this clinical trial had blood available from all 3 time points. One patient had Abi concentrations that were under the limit of detection and was later determine to have stopped treatment because of adverse effects and was therefore not included in the analysis. Drug metabolites and internal standard (d4-abiraterone, Toronto Research Chemicals Inc, Ontario Canada) were extracted from 100 μL of patient serum with methyl tert-butyl ether (Sigma Aldrich, St. Louis, Mo.), evaporated under a stream of nitrogen gas and reconstituted in methanol:water (50:50) prior to mass spectrometry analysis. Standard curves were generated using human serum spiked with known concentrations of each metabolite to enable determination of unknown concentrations in patient samples
# Samples were analyzed on a ultra high-performance liquid chromatography station (Shimadzu, Kyoto, Japan) with a DGU-20A3R degasser, 2 LC-30AD pumps, a SIL-30AC autosampler, a CTO-10A column oven and a CBM-20A system controller in tandem with a QTRAP 5500 mass spectrometer (AB Sciex, Framingham, Mass.). Drug metabolites were ionized using electrospray ionization in positive ion mode. Multiple reaction monitoring was used to follow mass transitions for Abi, IS, and the metabolites (Table 1). Due to the similarity in structure and mass transitions for the metabolites it was necessary to separate them with chromatography. Separation of drug metabolites was achieved using a mobile phase consisting of LC-MS grade (Fisher) methanol: acetonitrile: water:formic acid (39:26:34:1) at a flow rate of 0.2 ml/min., and C18 analytical column; Zorbax Eclipse plus 150×2.1 mm, 3.5 μm (Agilent, Santa Clara, Calif.).
# mutant AR (LNCaP) = target: T1, mutant AR (LNCaP) (Homo sapiens, UniProt P10275, T878A); assay: AR competition assay with [3H]-R1881 in LNCaP cells; format: binding; conditions: for affinity for T877A mutant AR: [3H]-R1881, 30 min
# T1 construct: endogenous in cells; host or cells: LNCaP
# T1 sequence (P10275 1-920 T878A): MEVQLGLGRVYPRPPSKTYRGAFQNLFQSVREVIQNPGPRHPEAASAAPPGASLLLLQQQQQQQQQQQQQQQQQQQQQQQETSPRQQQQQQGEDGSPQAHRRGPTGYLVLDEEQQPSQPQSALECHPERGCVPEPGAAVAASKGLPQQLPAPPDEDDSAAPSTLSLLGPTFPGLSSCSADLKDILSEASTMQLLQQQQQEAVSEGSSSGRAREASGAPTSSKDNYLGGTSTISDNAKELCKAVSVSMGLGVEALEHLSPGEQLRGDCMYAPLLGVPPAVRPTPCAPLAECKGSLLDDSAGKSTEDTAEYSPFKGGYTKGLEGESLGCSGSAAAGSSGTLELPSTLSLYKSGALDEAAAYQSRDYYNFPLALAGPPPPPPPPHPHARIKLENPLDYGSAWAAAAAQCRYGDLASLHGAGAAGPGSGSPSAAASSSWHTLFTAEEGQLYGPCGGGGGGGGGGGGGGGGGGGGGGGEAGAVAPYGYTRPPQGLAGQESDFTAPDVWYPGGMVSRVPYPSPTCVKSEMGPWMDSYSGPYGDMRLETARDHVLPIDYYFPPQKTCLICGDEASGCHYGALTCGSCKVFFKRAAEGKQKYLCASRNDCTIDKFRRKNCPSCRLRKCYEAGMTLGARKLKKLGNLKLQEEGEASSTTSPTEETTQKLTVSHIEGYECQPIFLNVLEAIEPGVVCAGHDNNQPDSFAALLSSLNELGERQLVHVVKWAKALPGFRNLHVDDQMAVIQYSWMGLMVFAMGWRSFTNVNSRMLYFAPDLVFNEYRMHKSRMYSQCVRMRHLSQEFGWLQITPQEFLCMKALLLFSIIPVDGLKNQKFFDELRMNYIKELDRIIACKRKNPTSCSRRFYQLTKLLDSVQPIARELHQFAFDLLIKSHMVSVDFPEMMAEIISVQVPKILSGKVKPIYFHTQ
# Experimental: Cells were cultured in serum-free medium for 48 h and then treated with [^3H]-R1881 and the indicated concentrations of D4A, Abi, enzalutamide, R1881 or bicalutamide for 30 min. Cells were washed with 1×PBS 4 times and 0.9% NaCl solution twice before lysis with RIPA buffer.
# Cells were starved with phenol red-free and serum free-medium for at least 48 h and then treated with [^3H]-R1881 and the indicated concentrations of drugs for 30 min. Cells were washed thoroughly with PBS and then lysed with […].
SMILES,decline in mean serum concentration after the addition of dutasteride ([1]; cycle 3 vs. cycle 4),affinity for T877A mutant AR (mutant AR (LNCaP)),"mean serum concentration, cycle 3 [1]","mean serum concentration, cycle 4 [1]","IC50 (mutant AR (LNCaP); competition with 0.1 nM [3H]-R1881, read-out: IC50, affinity for mutant AR)"
"C[C@]12CC[C@@H](O)C[C@@H]1CC[C@@H]1[C@@H]2CC[C@]2(C)C(c3cccnc3)=CC[C@@H]12 [Compound 3α-OH-5α-Abi, 17-(3-pyridyl)-5α-androsta-16-ene-3α-ol]",92%,lower,–,–,–
"C[C@]12CCC(=O)C=C1CC[C@@H]1[C@@H]2CC[C@]2(C)C(c3cccnc3)=CC[C@@H]12 [Compound D4A, 17-(3-Pyridyl)androsta-4,16-dien-3-one]",–,–,9.9 nM,18.2 nM,5.3 nM
"C[C@]12CCC(=O)C[C@@H]1CC[C@@H]1[C@@H]2CC[C@]2(C)C(c3cccnc3)=CC[C@@H]12 [Compound 5α-Abi, 17-(3-pyridyl)-5α-androsta-16-ene-3-one]",–,comparable to that of D4A,25.8 nM,2.9 nM,–
